Results as given in publication PMC12295927, “Design, Synthesis, and Testing of 1,2,3-Triazolo-Quinobenzothiazine Hybrids for Cytotoxic and Immunomodulatory Activity” (International Journal of Molecular Sciences, 2025).

Key:
Assay type in all cases: cell-based, Human
[1] = tested on: MDM2 gene; assay: RT-qPCR MDM2 gene expression in BEAS-2B; settings: 24 h; for fold induction at 100 µM: Homo sapiens, reference gene RPL41, vs untreated control, read-out: Relative level of expression, MDM2 gene
Procedure: Real-time polymerase chain reaction was performed for the reference gene RPL41 (ribosomal protein L41) and the tested genes: BCL2, AIFM2, MDM2, IL6 and IL8. […] The BEAS-2B line was selected for the experiment. The expression level of selected genes was measured after 24 h of incubation with the tested substances MJ1–MJ20 at a concentration of 100 μM (Table 3).
The RT-qPCR experiment was performed for the BEAS-2B cell line. In this experiment, the MDM2 gene was studied and RPL41 was used as reference gene (Figure 15).
(§1) Gene expression studies used quantitative RT-qPCR to assess the effect of the tested quinobenzothiazines (MJ1–MJ20) on the expression of apoptosis-related genes (BCL2, AIFM2, MDM2) and pro-inflammatory cytokines (IL6, IL8) (Table 4).
(§2) BEAS-2B and HCT116 cells were seeded in 6-well plates at 2 × 10^5 cells per well and cultured in RPMI-1640 (BEAS-2B) or DMEM (HCT116) medium supplemented with 10% FBS and 1% penicillin/streptomycin at 37 °C, 5% CO2 and 95% humidity. After 24 h of incubation, the tested compounds were added at a concentration of 100 µM. After 24 h, the medium was removed from the cells, washed with PBS solution, 0.5 mL of trypsin was added per well and after 5 min it was neutralized with medium. The obtained cell suspension was centrifuged for 3 min at 2000 rpm, the supernatant was removed, and the obtained pellet was suspended in 400 µL of phenozol. Samples were frozen at −20 °C and stored until further experiment and RNA isolation.
Total RNA was isolated from cells using the A&A Biotechnology Total RNA Mini kit according to the manufacturer’s protocol. RNA quality and quantity were assessed using a NanoDrop 2000 spectrophotometer at 260/280 nm. Reverse transcription was performed using the protocol (EURx NG dART RT Kit) to obtain cDNA. After incubation, samples were placed in a freezer (−20 °C) and stored until further analysis.
The experiment was performed according to the protocol (Brilliant III Ultra Fast SYBR® Green QPCR Master Mix, Quick Reference Guide for the Bio-Rad CFX96 Real-Time PCR Detection System). RT-qPCR reaction was performed using specific primers for target genes (BCL2, AIFM2, MDM2, IL6, IL8). Gene expression was normalized to the expression of the reference gene RPL41. Reaction profiles and results were performed using Bio-Rad CFX Maestro 1.1 software from Bio-Rad. Analysis and calculations of the results obtained during RT-qPCR were performed using Microsoft Excel.
The results were analyzed using the R = 2^−ΔΔCt method, which allows for determining the relative level of gene expression (R) compared to the control. Each experiment was performed in three technical and biological replicates. RT-qPCR allowed for precise assessment of changes in the expression of genes related to the processes of apoptosis and inflammatory response under the influence of quinobenzothiazines, which allowed for identifying their potential mechanisms of action at the molecular level.

[2] = tested on: MDM2 gene; assay: RT-qPCR MDM2 gene expression in HCT116; settings: HCT116, 100 μM, 24 h, vs untreated control
Procedure: (§3) In each of the four compound groups: MJ1–MJ5, MJ6–MJ10, MJ11–MJ15, and MJ16–MJ20, one compound was selected based on the best IC50 value and a distinctive gene expression profile (BCL2, MDM2, AIFM2, IL6, IL8).
as §1
as §2, with “The obtained cell suspension was centrifuged for 3 min at 2000 rpm, the supernatant was removed, and the obtained pellet was suspended in 400 µL of phenozol. Samples were frozen at −20 °C and stored until further experiment and RNA isolation.” left out
(§4) Total RNA was isolated from cells using the A&A Biotechnology Total RNA Mini kit according to the manufacturer’s protocol. RNA quality and quantity were assessed using a NanoDrop 2000 spectrophotometer at 260/280 nm. […]
(§5) The results were analyzed using the R = 2^−ΔΔCt method, which allows for determining the relative level of gene expression (R) compared to the control. […]

[3] = tested on: HCT116 cells; assay: DAPI staining for nuclear morphology and apoptosis, HCT116; settings: HCT116, 100 μM, 24 h
Procedure: (§6) The BEAS-2B, NHDF, HCT116, MCF7, SH-SY5Y, A549 cell lines studied were cultured in DMEM medium supplemented with 10% fetal bovine serum (FBS) and 1% penicillin/streptomycin solution. Cells were seeded at 1 × 10^4 per well in 96-well plates and incubated for 24 h under standard culture conditions: temperature 37 °C, 5% CO2, 95% humidity. After 24 h, compounds from the MJ1–MJ20 group were added to individual wells at different concentrations (6.25 µM, 12.5 µM, 25 µM, 50 µM, 100 µM). The control consisted of cells grown only in medium without the addition of chemical compounds. After 24 h of incubation, cells were observed under a microscope (JuLI™ FL Live fluorescence microscope from NanoEntek, Martinsried, Germany), documenting morphological changes. Observations included visual assessments of confluence, cell shape, arrangement, and interaction with the substrate. The Supplementary Materials include a comprehensive collection of microscopic images showing the morphology of the tested cell lines (BEAS-2B, NHDF, HCT116, MCF7, SH-SY5Y, A549) after 24 h of incubation with compounds MJ1–MJ20. These images illustrate the effects of the compounds on cell shape, density, and adhesion. The images are provided as a separate PDF file for further reference. For apoptosis observations, the samples of BEAS-2B and HCT116 cells were additionally fixed with 4% paraformaldehyde (PFA) after 24 h of incubation with, or without selected compounds (Section 2.6) and DAPI stained for apoptotic bodies visualization (Fluoromount-G™ medium with DAPI dye; Thermo Fisher Scientific, Waltham, MA, USA). The samples were visualized using fluorescent microscopy AXIO IMAGER M1 by ZEISS, DAPI channel and 20x magnification. The percent of counted cells with apoptotic nucleus was defined in comparison to all visualized events.
(§7) BEAS-2B and HCT116 cells were seeded into culture plates at 5 × 10^3 cells per well using 0.5 mL of RPMI-1640 medium (for BEAS-2B) or DMEM (for HCT116). The plates were incubated for 24 h at 37 °C in an atmosphere containing 5% CO2. After incubation, the medium was removed and compounds MJ2, MJ8, MJ15, and MJ19 were added in the appropriate medium at a concentration of 100 μM. The plates were incubated for 24 h at 37 °C in an atmosphere containing 5% CO2. After incubation, the medium was removed, and 500 µL of 4% paraformaldehyde (PFA) was added to each well to fix the cells. Incubation continued for 10 min at room temperature. After removal of the PFA, the wells were rinsed with 500 µL of PBS (5 min of incubation) and then with distilled water. The cells were allowed to dry at room temperature. After drying, the cells were stained with DAPI. Observations were made using a fluorescence microscope AXIO IMAGER M1 by ZEISS at 20x magnification.

[4] = tested on: AIFM2 gene; assay: RT-qPCR AIFM2 gene expression in HCT116; settings: HCT116, 100 μM, 24 h, vs untreated control
Procedure: as §3, §1
as §2, with “The obtained cell suspension was centrifuged for 3 min at 2000 rpm, the supernatant was removed, and the obtained pellet was suspended in 400 µL of phenozol. Samples were frozen at −20 °C and stored until further experiment and RNA isolation.” left out
as §4, §5

[5] = tested on: BEAS-2B cells; assay: DAPI staining for nuclear morphology and apoptosis, BEAS-2B; settings: 100 μM, 24 h
Procedure: as §6, §7

[6] = tested on: IL6 gene; assay: RT-qPCR IL6 gene expression in HCT116; settings: HCT116, 100 μM, 24 h, vs untreated control
Procedure: as §3, §1
as §2, with “The obtained cell suspension was centrifuged for 3 min at 2000 rpm, the supernatant was removed, and the obtained pellet was suspended in 400 µL of phenozol. Samples were frozen at −20 °C and stored until further experiment and RNA isolation.” left out
as §4, §5

[7] = tested on: IL8 gene; assay: RT-qPCR IL8 gene expression in HCT116; settings: HCT116, 100 μM, 24 h, vs untreated control
Procedure: as §3, §1
as §2, with “The obtained cell suspension was centrifuged for 3 min at 2000 rpm, the supernatant was removed, and the obtained pellet was suspended in 400 µL of phenozol. Samples were frozen at −20 °C and stored until further experiment and RNA isolation.” left out
as §4, §5

SMILES | fold induction at 100 µM [1] | Relative level of expression, MDM2 gene [2] | Apoptotic changes in cell nuclei (DAPI) [3] | Relative level of expression, AIFM2 gene [4] | Apoptotic changes in cell nuclei (DAPI) [5] | Relative level of expression, IL6 gene [6] | Relative level of expression, IL8 gene [7] | MDM2 expression increase ([1]; 100 μM, compared to control) [fold]
Clc1ccc2c(c1)Sc1cc3ccccc3nc1N2Cc1cn(CSc2ccccc2)nn1 [MJ15, 9-Chloro-6-((1-((phenylthio)methyl)-1H-1,2,3-triazol-4-yl)methyl)-quino[3,2-b]benzo[1,4]thiazine] | 6.4 | 3.73 | no significant apoptotic changes | 4.94 | no significant apoptotic changes | 5.56 |  | 
Fc1ccc(Cn2cc(CN3c4ccccc4Sc4cc5ccccc5nc43)nn2)cc1 [MJ2, 6-((1-(4-Fluorobenzyl)-1H-1,2,3-triazol-4-yl)methyl)-quino[3,2-b]benzo[1,4]thiazine] | 6.3 |  | no significant apoptotic changes |  | no significant apoptotic changes |  |  | 
Fc1ccc2c(c1)Sc1cc3ccccc3nc1N2Cc1cn(Cc2ccc(Cl)cc2)nn1 [MJ8, 9-Fluoro-6-[(1-(4-chlorobenzyl)-1H-1,2,3-triazol-4-yl)methyl]-quino[3,2-b]benzo-[1,4]thiazine] | 8.1 |  | no significant apoptotic changes |  | no significant apoptotic changes | 6.55 | 6.95 | 
CSc1ccc2c(c1)Sc1cc3ccccc3nc1N2Cc1cn(Cc2ccc(C#N)cc2)nn1 [MJ19, 4-((4-((9-Methylthioquino[3,2-b]benzo[1,4]thiazin-6-yl)methyl)-1H-1,2,3-triazol-1-yl)methyl)benzonitrile] | 10.3 |  | no significant apoptotic changes |  | no significant apoptotic changes |  |  | 10.3
